# From ChEMBL document CHEMBL5532665 (J Med Chem, 2024)
# Tests used:
# Mu-type opioid receptor [1] = molecular target: T1, Mu-type opioid receptor (Homo sapiens, UniProt P35372); assay: Agonist activity at human MOR expressed in CHO-K1 cells co-expressing G-alpha15 by calcium mobilization assay; format: functional, cell-based; settings: cho-k1
# [2] = molecular target: T2, Kappa-type opioid receptor (Homo sapiens, UniProt P41145); assay: Agonist activity at human KOR expressed in CHO-K1 cells co-expressing G-alpha15 by calcium mobilization assay; format: functional, cell-based; settings: cho-k1
# T2 sequence (P41145 whole entry): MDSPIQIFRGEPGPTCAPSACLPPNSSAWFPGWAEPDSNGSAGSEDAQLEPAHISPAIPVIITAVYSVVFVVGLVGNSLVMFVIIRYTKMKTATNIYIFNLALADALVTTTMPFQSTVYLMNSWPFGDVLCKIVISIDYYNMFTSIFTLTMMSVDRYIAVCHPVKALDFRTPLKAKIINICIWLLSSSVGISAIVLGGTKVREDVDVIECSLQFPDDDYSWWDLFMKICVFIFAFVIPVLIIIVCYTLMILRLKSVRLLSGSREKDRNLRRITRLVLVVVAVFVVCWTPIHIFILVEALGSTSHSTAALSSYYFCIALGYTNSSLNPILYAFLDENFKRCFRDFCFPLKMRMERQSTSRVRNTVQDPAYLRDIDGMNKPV
# [3] = molecular target: T3, Delta-type opioid receptor (Homo sapiens, UniProt P41143); assay: Agonist activity at human DOR expressed in CHO-K1 cells co-expressing G-alpha15 by calcium mobilization assay; format: functional, cell-based; settings: cho-k1
# T3 sequence (P41143 whole entry): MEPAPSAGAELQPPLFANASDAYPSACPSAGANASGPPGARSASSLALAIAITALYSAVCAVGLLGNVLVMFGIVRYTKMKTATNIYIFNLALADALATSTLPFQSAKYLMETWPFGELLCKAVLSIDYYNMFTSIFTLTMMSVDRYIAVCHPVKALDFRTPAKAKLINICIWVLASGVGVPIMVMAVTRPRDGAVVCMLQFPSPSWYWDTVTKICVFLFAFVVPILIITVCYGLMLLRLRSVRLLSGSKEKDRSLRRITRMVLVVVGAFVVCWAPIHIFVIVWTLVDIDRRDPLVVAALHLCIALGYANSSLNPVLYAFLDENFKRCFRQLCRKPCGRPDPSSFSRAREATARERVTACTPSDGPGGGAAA
# [4] = Stability in mouse plasma assessed as half life at 0.01 mol/L measured for 72 hrs by RP-HPLC analysis; format: ADME, cell-free
# [5] = Selectivity ratio of ED50 for inhibition of gastrointestinal motility in fasted Kunming mouse model treated subcutaneously to ED50 for antinociceptive activity in Kunming mouse model administered subcutaneously measured for 5 to 15 mins by acetic acid-induced writhing test; format: toxicity; settings: in vivo, route sc, read-out: Ratio ED50
# [6] = Selectivity ratio of ED50 for inhibition of gastrointestinal motility in fasted Kunming mouse model treated subcutaneously to ED50 for antinociceptive activity in Kunming mouse model administered subcutaneously by tail-flick test; format: toxicity; settings: in vivo, route sc, read-out: Ratio ED50
# [7] = Toxicity in Kunming mouse model assessed as effect on locomotor co-ordination at 13.8 nmol/kg, sc measured for 10 to 40 mins by rotarod test; format: organism-based; settings: in vivo, time 10-40 min
# [8] = Toxicity in Kunming mouse model assessed as effect on locomotor co-ordination at 139 nmol/kg, sc measured for 10 to 40 mins by rotarod test; format: organism-based; settings: in vivo, time 10-40 min
# Mu-type opioid receptor [9] = molecular target: T1, Mu-type opioid receptor; assay: Agonist activity at human MOR expressed in CHO-K1 cells co-expressing G-alpha15 by calcium mobilization assay relative to control; format: functional, cell-based; settings: filed as agonist
# [10] = molecular target: T2, Kappa-type opioid receptor; assay: Agonist activity at human KOR expressed in CHO-K1 cells co-expressing G-alpha15 by calcium mobilization assay relative to control; format: functional, cell-based; settings: filed as agonist
# [11] = molecular target: T3, Delta-type opioid receptor; assay: Agonist activity at human DOR expressed in CHO-K1 cells co-expressing G-alpha15 by calcium mobilization assay relative to control; format: functional, cell-based; settings: filed as agonist
# Mus musculus [12] = assay: Antinociceptive activity in Kunming mouse model assessed as latency of tail withdrawal at 138.9 nmol/kg, sc measured for 10 mins by tail-flick test relative to control; format: functional
# Mus musculus [13] = assay: Antinociceptive activity in Kunming mouse model assessed as latency of tail withdrawal at 138.9 nmol/kg, sc measured for 30 mins by tail-flick test relative to control; format: functional; settings: 0.5 h
# Mus musculus [14] = assay: Antinociceptive activity in Kunming mouse model assessed as latency of tail withdrawal at 138.9 nmol/kg, sc measured for 60 mins by tail-flick test relative to control; format: functional; settings: 1 h
# Mus musculus [15] = assay: Antinociceptive activity in Kunming mouse model assessed as latency of tail withdrawal at 138.9 nmol/kg, sc measured for 120 mins by tail-flick test relative to control; format: functional; settings: 2 h
# T1 sequence (P35372 whole entry): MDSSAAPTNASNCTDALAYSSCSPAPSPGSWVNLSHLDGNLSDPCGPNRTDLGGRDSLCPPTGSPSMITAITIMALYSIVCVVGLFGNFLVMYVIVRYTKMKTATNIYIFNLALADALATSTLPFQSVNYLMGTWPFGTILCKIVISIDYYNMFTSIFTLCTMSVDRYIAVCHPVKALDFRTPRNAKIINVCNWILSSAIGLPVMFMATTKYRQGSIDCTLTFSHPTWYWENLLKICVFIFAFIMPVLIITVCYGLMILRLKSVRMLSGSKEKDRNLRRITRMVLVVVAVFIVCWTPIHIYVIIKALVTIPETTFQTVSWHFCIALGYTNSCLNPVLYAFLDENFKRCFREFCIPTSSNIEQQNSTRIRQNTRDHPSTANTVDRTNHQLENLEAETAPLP
SMILES,EC50 (Mu-type opioid receptor [1]) [nM],EC50 [2] [nM],EC50 [3] [nM],half-life at 0.01 mol/L [4] [h],selectivity ratio [5],selectivity ratio [6],Activity [7],Activity [8],Emax (Mu-type opioid receptor [9]) [%],Emax [10] [%],Emax [11] [%],MPE (Mus musculus [12]) [%],MPE (Mus musculus [13]) [%],MPE (Mus musculus [14]) [%],MPE (Mus musculus [15]) [%]
NC(=O)[C@H]1CCCN1C(=O)[C@@H]1CC(=O)NCCCC[C@@H](NC(=O)[C@@H](N)Cc2ccc(O)cc2)C(=O)NCC(=O)N[C@@H](Cc2ccc(F)cc2)C(=O)N1,0.9,92.2,0.6,53.5,22,55,Non-Toxic,–,–,–,–,–,–,–,–
CN1C(=O)CNC(=O)[C@H](NC(=O)[C@@H](N)Cc2ccc(O)cc2)CCCCNC(=O)C[C@@H](C(=O)N2CCC[C@@H]2C(N)=O)NC(=O)[C@@H]1Cc1ccccc1,2.5,505,17.5,21.1,13,54,–,Non-Toxic,–,–,–,–,–,–,–
NC(=O)[C@H]1CCCCN1C(=O)[C@H]1CC(=O)NCCCC[C@@H](NC(=O)[C@@H](N)Cc2ccc(O)cc2)C(=O)NCC(=O)N[C@@H](Cc2ccccc2)C(=O)N1,4.9,2280,0.2,–,–,–,–,–,99.6,68.7,95.4,59.6,86.8,61.4,26.7
